Literature values in US8563554B2, “Deuterated pyrazinoisoquinoline compounds” (Concert Pharmaceuticals, Inc., priority 2009, dated 2013).

## O=C(C1CCCCC1)N1CC(=O)N2CCc3ccccc3C2C1 (centres unmarked) [praziquantel, 2-(cyclohexylcarbonyl)-1,2,3,6,7,11b-hexahydro-4H-pyrazino[2,1-a]isoquinolin-4-one]
Share of a dose of praziquantel
  dose excreted in the kidneys: Approximately 80%
Share of the renally excreted dose present as metabolites
  excreted in the form of metabolites: > 99%
